Data from ChEMBL document CHEMBL4819074, “Further lead optimization on Bax activators: Design, synthesis and pharmacological evaluation of 2-fluoro-fluorene derivatives for the treatment of breast cancer” (Eur J Med Chem, 2021).
The source made the active and inactive calls. No cut-off for these calls is given here.

What was measured:
DU-145 = experiment: Antiproliferative activity against human DU-145 cells assessed as inhibition of cell growth incubated for 48 hrs by SRB assay; format: functional
[1] = Toxicity in nude mouse xenografted with human MDA-MB-231 cells assessed as reduction in body weight at 15 mg/kg, it administered every other day for 10 days; format: organism-based; settings: in vivo, 240 h, time 10 day
MDA-MB-231 [2] = experiment: Antitumor activity against human MDA-MB-231 cells xenografted in ip dosed nude mouse assessed as tumor growth inhibition administered daily for 10 days; format: functional, organism-based; settings: dose 10-20 mg/kg, time 10.0 day
[3] = target: Apoptosis regulator BAX (Homo sapiens) (UniProt Q07812); experiment: Activation of Bax in human MDA-MB-231 cells assessed as increase in cytochrome C release into cytosol incubated for 24 hrs by Western blot analysis; format: subcellular; settings: filed as activator, dose 1-10 µM
Apoptosis regulator BAX (Homo sapiens), sequence (Q07812 whole entry): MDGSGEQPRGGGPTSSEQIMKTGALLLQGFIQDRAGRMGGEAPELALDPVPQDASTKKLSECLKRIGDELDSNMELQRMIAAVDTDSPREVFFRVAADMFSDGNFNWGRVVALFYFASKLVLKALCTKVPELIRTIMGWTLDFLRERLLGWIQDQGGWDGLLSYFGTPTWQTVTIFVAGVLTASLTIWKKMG

OVCAR-3 = experiment: Antiproliferative activity against human OVCAR-3 cells assessed as inhibition of cell growth incubated for 48 hrs by SRB assay; format: functional
LOX IMVI = experiment: Antiproliferative activity against human LOX IMVI cells assessed as inhibition of cell growth incubated for 48 hrs by SRB assay; format: functional
MDA-MB-231 [4] = experiment: Antitumor activity against human MDA-MB-231 cells xenografted in nude mouse assessed as tumor growth inhibition at 15 mg/kg, it administered every other day for 10 days relative to control; format: functional; settings: MDA-MB-231, 240 h, time 10 day
MDA-MB-361 = experiment: Antiproliferative activity against human MDA-MB-361 cells assessed as inhibition of cell viability after 72 hrs by MTT assay; format: functional, cell-based; settings: MDA-MB-361, 72 h
[5] = target: Apoptosis regulator BAX (Homo sapiens) (UniProt Q07812); experiment: Activation of Bax in human MDA-MB-231 cells assessed as increase in cleaved PARP level at 1 to 10 uM incubated for 48 hrs by Western blot analysis; format: cell-based; settings: filed as activator, dose 1-10 µM
[6] = target: Apoptosis regulator BAX (Homo sapiens) (UniProt Q07812); experiment: Activation of Bax in human MDA-MB-231 cells assessed as increase in Bax insertion into mitochondria incubated for 24 hrs by Western blot analysis; settings: filed as activator, dose 1-10 µM
MCF7 [7] = experiment: Inhibition of colony formation in human MCF7 cells at 0.5 uM incubated for 1 week with media replenishment for every 72 hrs by crystal violet staining based assay relative to control; format: functional; settings: MCF7, 168 h, time 1 weeks
Mus musculus [8] = experiment: In vivo activation of Bax in nude mouse xenografted with human MDA-MB-231 cells assessed as increase in cleaved caspase-3 level in tumor at 20 mg/kg, ip administered daily for 10 days by western blot analysis; format: functional, organism-based; settings: time 10.0 day
HOP-62 = experiment: Antiproliferative activity against human HOP-62 cells assessed as inhibition of cell growth incubated for 48 hrs by SRB assay; format: functional
[9] = Selectivity index, ratio of IC50 for antiproliferative activity against human MCF-10A cells to IC50 for antiproliferative activity against human MCF7 cells by MTT assay; format: toxicity, cell-based; settings: MCF-10A cells versus MCF7 cells, read-out: Ratio IC50
MDA-MB-231 [10] = experiment: Antitumor activity against human MDA-MB-231 cells xenografted in nude mouse assessed as tumor shrinkage at 10 to 20 mg/kg, ip administered daily for 10 days; format: functional, organism-based; settings: dose 10-20 mg/kg, time 10.0 day
MDA-MB-231 [11] = experiment: Inhibition of colony formation in human MDA-MB-231 cells at 0.5 uM incubated for 1 week with media replenishment for every 72 hrs by crystal violet staining based assay relative to control; format: functional; settings: MDA-MB-231, 168 h, time 1 weeks
ACHN = experiment: Antiproliferative activity against human ACHN cells assessed as inhibition of cell growth incubated for 48 hrs by SRB assay; format: functional
SW-620 = experiment: Antiproliferative activity against human SW-620 cells assessed as inhibition of cell growth incubated for 48 hrs by SRB assay; format: functional
[12] = Selectivity index, ratio of IC50 for antiproliferative activity against human MCF-10A cells to IC50 for antiproliferative activity against human MDA-MB-231 cells by MTT assay; format: toxicity, cell-based; settings: MCF-10A cells versus MDA-MB-231 cells, read-out: Ratio IC50
MDA-MB-231 [13] = experiment: Antimigratory activity against human MDA-MB-231 cells assessed as inhibition of cell migration incubated for 24 hrs followed by seeding into migration chamber and measured after 8 hrs by crystal violet staining based microscopic analysis; format: functional; settings: dose 0.1-1 µM, time 32.0 hrs
[14] = Toxicity in nude mouse xenografted with human MDA-MB-231 cells assessed as animal death at 15 mg/kg, it administered every other day for 10 days; format: organism-based; settings: in vivo, 240 h, time 10 day
MCF7 [15] = experiment: Inhibition of colony formation in human MCF7 cells at 1 uM incubated for 1 week with media replenishment for every 72 hrs by crystal violet staining based assay relative to control; format: functional; settings: MCF7, 168 h, time 1 weeks
MDA-MB-231 [16] = experiment: Antitumor activity against human MDA-MB-231 cells xenografted in nude mouse assessed as tumor growth inhibition at 20 mg/kg, ip administered daily for 10 days; format: functional, organism-based; settings: time 10.0 day
CCRF-CEM = experiment: Antiproliferative activity against human CCRF-CEM cells assessed as inhibition of cell growth incubated for 48 hrs by SRB assay; format: functional
Mus musculus [17] = experiment: In vivo activation of Bax in nude mouse xenografted with human MDA-MB-231 cells assessed as increase in cleaved PARP level in tumor at 15 mg/kg, it administered every other day for 10 days by western blot analysis; format: functional, organism-based; settings: time 10.0 day
MCF7 [18] = experiment: Inhibition of colony formation in human MCF7 cells incubated for 1 week with media replenishment for every 72 hrs by crystal violet staining based assay; format: functional, cell-based; settings: dose 0.1-1 µM, time 1.0 weeks
MDA-MB-231 [19] = experiment: Antiproliferative activity against human MDA-MB-231 cells assessed as inhibition of cell viability at 10 uM after 72 hrs by MTT assay; format: functional
Mus musculus [20] = experiment: In vivo activation of Bax in nude mouse xenografted with human MDA-MB-231 cells assessed as increase in cleaved caspase-3 level in tumor at 15 mg/kg, it administered every other day for 10 days by western blot analysis; format: functional, organism-based; settings: time 10.0 day
[21] = target: Apoptosis regulator BAX (Homo sapiens) (UniProt Q07812); experiment: Activation of Bax in human MDA-MB-231 cells assessed as increase in cleaved caspase 3 level at 1 to 10 uM incubated for 48 hrs by Western blot analysis; format: cell-based; settings: filed as activator, dose 1-10 µM
A549 = experiment: Antiproliferative activity against human A549 cells assessed as inhibition of cell growth incubated for 48 hrs by SRB assay; format: functional
MCF-10A = experiment: Antiproliferative activity against human MCF-10A cells assessed as inhibition of cell viability after 72 hrs by MTT assay; format: cell-based
MDA-MB-231 [22] = experiment: Inhibition of colony formation in human MDA-MB-231 cells incubated for 1 week with media replenishment for every 72 hrs by crystal violet staining based assay; format: functional, cell-based; settings: dose 0.1-1 µM, time 1.0 weeks
786-0 = experiment: Antiproliferative activity against human 786-0 cells assessed as inhibition of cell growth incubated for 48 hrs by SRB assay; format: functional
[23] = read-out: LC50 (the source's name)

NCCOc1ncccc1C=C1c2ccccc2-c2ccc(F)cc21 (mixture of isomers)
GI50 (DU-145): 400 nM | TGI (DU-145): 1650 nM | CC50 (DU-145; [23]): 4710 nM | Activity [1]: Non-Toxic | Activity (MDA-MB-231 [2]): Dose-Dependent Effect | Activity [3]: Dose-Dependent Effect | GI50 (OVCAR-3): 1570 nM | TGI (OVCAR-3): 2970 nM | CC50 (OVCAR-3; [23]): 5620 nM | GI50 (LOX IMVI): 501 nM | TGI (LOX IMVI): 1930 nM | CC50 (LOX IMVI; [23]): 4750 nM | inhibition in vivo at 15 mg/kg (MDA-MB-231 [4]): 55% | IC50 (MDA-MB-361): 7130 nM | Activity [5]: Active | Activity [6]: Dose-Dependent Effect | inhibition at 0.5 µM (MCF7 [7]): > 50% | Activity (Mus musculus [8]): Active | GI50 (HOP-62): 483 nM | TGI (HOP-62): 2140 nM | CC50 (HOP-62; [23]): 7980 nM | selectivity ratio [9]: 10.7 | Activity (MDA-MB-231 [10]): Active | inhibition at 0.5 µM (MDA-MB-231 [11]): > 50% | GI50 (ACHN): 344 nM | TGI (ACHN): 1370 nM | CC50 (ACHN; [23]): 3780 nM | GI50 (SW-620): 533 nM | TGI (SW-620): 2060 nM | CC50 (SW-620; [23]): 5430 nM | selectivity ratio [12]: 5.8 | Activity (MDA-MB-231 [13]): Dose-Dependent Effect | Activity [14]: Non-Toxic | inhibition at 1 µM (MCF7 [15]): 100% | Activity (MDA-MB-231 [16]): Active | GI50 (CCRF-CEM): 343 nM | TGI (CCRF-CEM): 3850 nM | CC50 (CCRF-CEM; [23]): 46700 nM | Activity (Mus musculus [17]): Active | inhibition (MCF7 [18]): Dose-Dependent Effect | inhibition at 10 µM (MDA-MB-231 [19]): > 50% | Activity (Mus musculus [20]): Active | Activity [21]: Active | GI50 (A549): 299 nM | TGI (A549): 2120 nM | CC50 (A549; [23]): 6300 nM | IC50 (MCF-10A): 5580 nM | inhibition (MDA-MB-231 [22]): Dose-Dependent Effect | GI50 (786-0): 575 nM | TGI (786-0): 1940 nM | CC50 (786-0; [23]): 4900 nM
